Source: US9517996B2, “Purification of polycarboxylic acids” (Verdezyne, Inc., priority 2014, dated 2016)

Assay: physchem
Settings: thermodynamic from solid
Description: Each polycarboxylic acid was added to the water or acetic acid solution while mixing and kept at the appropriate temperature until the solution became supersaturated as visually determined at least 20 minutes after addition of the polycarboxylic acid.

For `O=C(O)CCCCCCCCCCC(=O)O` [DDDA, dodecanedioic acid], the solubility (20 °C, organic solvent or mixture) was < 200 µg/mL, the solubility (23 °C, water) was < 30 µg/mL and the solubility (70 °C, organic solvent or mixture) was > 100000 µg/mL. For the same compound, the solubility (70 °C, water) was < 120 µg/mL and the solubility (water) was < 1000 µg/mL.
